Reference: US20130052190A1, “CRTH2 Antagonists for Treatment of Eosinophilic Diseases and Conditions” (Oxagen Limited, priority 2011, published 2013)

Experiments:
[1] = tested on: patients with mild to moderate persistent asthma; assay: 12 week study in patients with mild to moderate persistent asthma (FEV1); format: in vivo, human; conditions: for FEV1 Improvement: 12 weeks, patient population on OC000459; for improvement in FEV1 over patients given the placebo / improvement in FEV1 over baseline: after 12 weeks
Experimental: 12 Week Study in Patients with Mild to Moderate Persistent Asthma
The study was a randomized, double blind, placebo controlled, four arm study of three dosage levels of (5-fluoro-2-methyl-3-quinolin-2-ylmethyl-indol-1-yl)-acetic acid (OC000459) tablets in patients with asthma controlled by β2 agonists alone. The study compared patients on OC000459 at three different dose levels (25 mg once daily, 100 mg twice daily, and 200 mg once daily) with patients on placebo after dosing for 12 weeks. The study consisted of 460 patients which yielded 440 evaluable results with 110 patients per arm. There was a screening period of 1 to 2 weeks, followed by placebo run-in for 3 weeks before the treatment period. There was a placebo wash-out for two weeks following the treatment period with a follow-up 3 to 5 weeks after the treatment period.
(§1) 1. Males and females aged 18-55 years. 2. Asthma controlled by short-acting β2 agonists only. 3. Mild to moderate persistent asthma according to GINA4 guidelines for at least 12 months. 4. Non-smokers for at least the past 12 months with a pack history of less than 10 pack years.
Receipt of prescribed or over-the-counter medication within 14 days prior to the first study day.
1. Morning FEV1 of 60-85% of predicted. 2. Reversibility of ≧12% after salbutamol. 3. Greater than 1 puff per day of salbutamol required.

[2] = tested on: patients with mild to moderate asthma; assay: 4 week study in patients with mild to moderate asthma (FEV1); format: in vivo, human; conditions: after 4 weeks, 100 mg twice daily
Experimental: 4 Week Study in Patients with Mild to Moderate Asthma
The study was a randomized, double blind, placebo controlled study of (5-fluoro-2-methyl-3-quinolin-2-ylmethyl-indol-1-yl)-acetic acid (OC000459) for 28 days in patients with mild to moderate asthma with a FEV1 of 60-80% of predicted and requiring only short acting inhaled β2 agonists for symptomatic control. The study compared patients taking 100 mg of OC000459 twice daily with patients taking a placebo twice daily. The study consisted of 112 patients with 53 patients taking OC000459 and 59 patients taking the placebo.
as §1, with “pack years. 5. History of asthma symptoms increasing in response to external allergens. 6. Testing positive on skin prick test to an allergen associated with the patient's allergen.” for “pack years.”
1. Receipt of prescribed or over-the-counter medication within 14 days prior to the first study day. 2. Use of inhaled or local corticosteroids in the period 28 days prior to screening.

[3] = FEV1 60-80% of predicted and positive skin prick test at baseline, FIG. 1
[4] = FEV1 60-80% of predicted, blood eosinophil count greater than or equal to 250/μL, positive skin prick test, FIG. 2
[5] = blood eosinophil count greater than or equal to 250/μL, FIG. 6(b)
[6] = full population (112 patients), FIG. 6(a)

`Cc1c(Cc2ccc3ccccc3n2)c2cc(F)ccc2n1CC(=O)O` [OC000459, (5-fluoro-2-methyl-3-quinolin-2-ylmethyl-indol-1-yl)-acetic acid] was tested, and the “FEV1 Improvement” value ([1]; 60-80% FEV1 Atopic) was 130 mL, the “FEV1 Improvement” value ([1]; All-Comers) was 100 mL and the “FEV1 Improvement” value ([1]; Hi-eosinophil count (>250/μL)) was 188 mL. The “improvement in FEV1 over patients given the placebo” value ([1]; ACQ score greater than or equal to 1.5 at baseline, FIG. 4) was 140 mL, the “improvement in FEV1 over patients given the placebo” value ([1]; ACQ score less than 1.5 at baseline, FIG. 5) was 30 mL and the “improvement in FEV1 over baseline” value [1, 3] was 191 mL. The “improvement in FEV1 over patients given the placebo” value [1, 3] was 130 mL, the “improvement in FEV1 over baseline” value [1, 4] was 184 mL and the “improvement in FEV1 over patients given the placebo” value [1, 4] was 188 mL. For the same compound, the “improvement in FEV1 over patients given the placebo” value ([1]; FEV1 60-80% of predicted, blood eosinophil count less than 250/μL, positive skin prick test, FIG. 3) was 76 mL, the “improvement in FEV1 over baseline” value [2, 5] was 250 mL and the “improvement in FEV1 over patients given the placebo” value [2, 5] was 180 mL. For the same compound, the “improvement in FEV1 over patients given the placebo” value ([2]; blood eosinophil count less than 250/μL, FIG. 6(c)) was “only a small improvement”, the “improvement in FEV1 over baseline” value [2, 6] was 190 mL and the “improvement in FEV1 over patients given the placebo” value [2, 6] was 100 mL.
